These compounds were tested against T1, human TRPM8 (Homo sapiens, UniProt Q7Z2W7) (assay: Luminescence readout assay for measuring intracellular calcium, icilin activation). Conditions: CHO cells expressing human TRPM8, aequorin luminescence, 1 μM icilin activation; read-out: hTRPM8 IC50.
T1 construct: expressed in transfected cells; host or cells: Chinese hamster ovary (CHO) cells, T-REx tetracycline-inducible system, co-transfected with aequorin
T1 sequence (Q7Z2W7 whole entry): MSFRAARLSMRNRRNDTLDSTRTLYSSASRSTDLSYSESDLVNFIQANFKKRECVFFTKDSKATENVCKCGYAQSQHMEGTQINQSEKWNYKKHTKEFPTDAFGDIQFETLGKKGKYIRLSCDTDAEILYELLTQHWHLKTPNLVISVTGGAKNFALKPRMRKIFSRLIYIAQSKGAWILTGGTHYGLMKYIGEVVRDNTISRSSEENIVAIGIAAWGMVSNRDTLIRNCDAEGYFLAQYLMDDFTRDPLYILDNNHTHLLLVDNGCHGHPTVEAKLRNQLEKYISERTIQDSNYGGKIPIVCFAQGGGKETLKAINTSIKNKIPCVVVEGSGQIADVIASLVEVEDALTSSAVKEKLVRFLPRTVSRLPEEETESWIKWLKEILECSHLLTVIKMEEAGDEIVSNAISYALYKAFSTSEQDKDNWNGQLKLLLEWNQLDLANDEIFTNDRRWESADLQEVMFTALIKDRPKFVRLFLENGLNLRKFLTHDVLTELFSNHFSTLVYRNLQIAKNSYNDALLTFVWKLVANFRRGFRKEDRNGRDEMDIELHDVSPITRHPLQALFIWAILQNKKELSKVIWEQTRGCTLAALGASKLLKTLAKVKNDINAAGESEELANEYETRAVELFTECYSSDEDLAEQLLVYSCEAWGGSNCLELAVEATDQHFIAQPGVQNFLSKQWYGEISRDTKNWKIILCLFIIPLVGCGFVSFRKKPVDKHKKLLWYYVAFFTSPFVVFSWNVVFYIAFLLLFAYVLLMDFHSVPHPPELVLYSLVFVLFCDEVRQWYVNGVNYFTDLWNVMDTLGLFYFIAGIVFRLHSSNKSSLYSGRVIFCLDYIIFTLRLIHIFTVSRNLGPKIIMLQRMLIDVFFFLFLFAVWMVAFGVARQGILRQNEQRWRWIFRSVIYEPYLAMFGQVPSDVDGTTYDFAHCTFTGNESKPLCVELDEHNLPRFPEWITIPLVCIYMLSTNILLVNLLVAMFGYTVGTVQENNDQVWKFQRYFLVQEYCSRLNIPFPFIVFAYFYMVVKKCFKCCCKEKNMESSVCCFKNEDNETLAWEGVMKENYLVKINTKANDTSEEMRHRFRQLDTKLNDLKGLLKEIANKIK
Format: cell-based
In short: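 The read-out was luminescence reporting intracellular calcium, recorded by a CCD-based luminometer. Compounds were preincubated for 2.5 min before agonist challenge with 1 μM icilin. Human TRPM8 was expressed in a stable T-REx CHO line, induced with 0.5 μg/mL tetracycline the day before.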
An IC50 of 59.6 nM was found for `O=C(N[C@@H](c1ccc(OC(F)(F)F)c(F)c1)c1ncccc1F)c1ccc(=O)n(CC2(O)CC2)c1` [Example 407, (S)-N-((3-fluoro-4-(trifluoromethoxy)phenyl)(3-fluoropyridin-2-yl)methyl)-1-((1-hydroxycyclopropyl)methyl)-6-oxo-1,6-dihydropyridine-3-carboxamide] in this work.
An IC50 of 36.7 nM was found for `Cc1cccnc1[C@@H](NC(=O)c1ccc(-c2nc(=O)o[nH]2)cc1)c1ccc(C(F)(F)F)cc1` [Example 323, (S)-N-((3-methylpyridin-2-yl)(4-(trifluoromethyl)phenyl)methyl)-4-(5-oxo-2,5-dihydro-1,2,4-oxadiazol-3-yl)benzamide] in this work.
An IC50 of 52.4 nM was found for `O=C(N[C@@H](c1ccc(OC(F)(F)F)cc1)c1ncccc1F)c1cccs1` [Example 374, (S)-N-((3-fluoropyridin-2-yl)(4-(trifluoromethoxy)phenyl)methyl)thiophene-2-carboxamide] in this work.
An IC50 of 29.5 nM was found for `C=Cc1cccnc1[C@@H](NC(=O)c1ccc(=O)[nH]c1)c1ccc(C(F)(F)F)cc1` [Example 363, (S)-6-oxo-N-((4-(trifluoromethyl)phenyl)(3-vinylpyridin-2-yl)methyl)-1,6-dihydropyridine-3-carboxamide] in this work.
An IC50 of 63.1 nM was found for `Cc1ncc(C(=O)N[C@@H](c2ccc(C(F)(F)F)cc2)c2ncccc2C(F)(F)F)cn1` [Example 57, (S)-2-methyl-N-((4-(trifluoromethyl)phenyl)(3-(trifluoromethyl)pyridin-2-yl)methyl)pyrimidine-5-carboxamide] in this work.
An IC50 of 164 nM was found for `O=C(N[C@@H](c1ccc(C(F)(F)F)cc1)c1ncccc1C(F)(F)F)c1ccno1` [Example 220, (S)-N-((4-(trifluoromethyl)phenyl)(3-(trifluoromethyl)pyridin-2-yl)methyl)isoxazole-5-carboxamide] in this work.
An IC50 of 187 nM was found for `O=C(N[C@@H](c1cnc2c(F)cccc2c1)c1ncccc1C(F)(F)F)c1ccc2cccnc2c1` [Example 20, (S)-N-((8-fluoroquinolin-3-yl)(3-(trifluoromethyl)pyridin-2-yl)methyl)quinoline-7-carboxamide] in this work.
An IC50 of 162 nM was found for `O=C(N[C@@H](c1ccc(C(F)(F)F)cc1)c1ncccc1C(F)(F)F)c1cccnn1` [Example 31, (S)-N-((4-(trifluoromethyl)phenyl)(3-(trifluoromethyl)pyridin-2-yl)methyl)pyridazine-3-carboxamide] in this work.
An IC50 of 27.8 nM was found for `O=C(N[C@@H](c1ccc(C(F)(F)F)cc1)c1ncccc1C(F)(F)F)c1ccc2nnnn2c1` [Example 311, (S)-N-((4-(trifluoromethyl)phenyl)(3-(trifluoromethyl)pyridin-2-yl)methyl)tetrazolo[1,5-a]pyridine-6-carboxamide] in this work.
An IC50 of 8.9 nM was found for `O=C(N[C@@H](c1ccc(C(F)(F)F)cc1)c1ncccc1C(F)(F)F)c1ccc2c(O)ccnc2c1` [Example 106, (S)-4-hydroxy-N-((4-(trifluoromethyl)phenyl)(3-(trifluoromethyl)pyridin-2-yl)methyl)quinoline-7-carboxamide 2,2,2-trifluoroacetate] in this work.
An IC50 of 17 nM was found for `O=C1COc2cc(C(=O)N[C@@H](c3ccc(C(F)(F)F)cc3)c3ncccc3F)ccc2N1` [Example 73, (S)-N-((3-fluoropyridin-2-yl)(4-(trifluoromethyl)phenyl)methyl)-3-oxo-3,4-dihydro-2H-benzo[b][1,4]oxazine-7-carboxamide] in this work.
An IC50 of 105 nM was found for `O=C(NC(c1ccc(C(F)(F)F)cc1)c1ncccc1F)c1cccc(F)c1` (stereo not shown) [Example 209, 3-fluoro-N-((3-fluoropyridin-2-yl)(4-(trifluoromethyl)phenyl)methyl)benzamide] in this work.
An IC50 of 10.2 nM was found for `O=C(N[C@@H](c1ccc(C(F)(F)F)cc1)c1ncccc1F)c1ccn2ccnc2c1` [Example 86, (S)-N-((3-fluoropyridin-2-yl)(4-(trifluoromethyl)phenyl)methyl)imidazo[1,2-a]pyridine-7-carboxamide] in this work.
An IC50 of 17.3 nM was found for `COc1ccc(C(=O)N[C@@H](c2ccc(C(F)(F)F)cc2)c2ncccc2C(F)(F)F)cc1` [Example 171, (S)-4-methoxy-N-((4-(trifluoromethyl)phenyl)(3-(trifluoromethyl)pyridin-2-yl)methyl)benzamide] in this work.
An IC50 of 294 nM was found for `O=C(Cc1ccccc1OC(F)(F)F)N[C@@H](c1ccc(C(F)(F)F)cc1)c1ncccc1C(F)(F)F` [Example 164] in this work.
An IC50 of 3290 nM was found for `CC(O)c1ccc([C@H](NC(=O)c2ccc3cccnc3c2)c2ncccc2C(F)(F)F)cc1` (stereo partly drawn) [Example 26, N-((1S)-(4-(1-hydroxyethyl)phenyl)(3-(trifluoromethyl)pyridin-2-yl)methyl)quinoline-7-carboxamide] in this work.
An IC50 of 395 nM was found for `CC1(C#Cc2cccnc2[C@@H](NC(=O)c2ccc3ncccc3c2)c2ccc(C(F)(F)F)cc2)COC1` [Example 101, (S)-N-((3-((3-methyloxetan-3-yl)ethynyl)pyridin-2-yl)(4-(trifluoromethyl)phenyl)methyl)quinoline-6-carboxamide 2,2,2-trifluoroacetate] in this work.
An IC50 of 64.4 nM was found for `O=C(N[C@@H](c1ccc(C(F)(F)F)cc1)c1ncccc1C(F)(F)F)c1ccc2c(Cl)ccnc2c1` [Example 110, (S)-4-chloro-N-((4-(trifluoromethyl)phenyl)(3-(trifluoromethyl)pyridin-2-yl)methyl)quinoline-7-carboxamide 2,2,2-trifluoroacetate] in this work.
An IC50 of 78.9 nM was found for `COc1cccc(C(=O)N[C@@H](c2ccc(C(F)(F)F)cc2)c2ncccc2C(F)(F)F)c1` [Example 191, (S)-3-methoxy-N-((4-(trifluoromethyl)phenyl)(3-(trifluoromethyl)pyridin-2-yl)methyl)benzamide] in this work.
An IC50 of 2660 nM was found for `O=C(O)Cn1cc(C(=O)N[C@@H](c2ccc(C(F)(F)F)cc2)c2ncccc2F)ccc1=O` [Example 429, (S)-2-(5-(((3-Fluoropyridin-2-yl)(4-(trifluoromethyl)phenyl)methyl)carbamoyl)-2-oxopyridin-1(2H)-yl)acetic Acid] in this work.
An IC50 of 21.5 nM was found for `COc1cnccc1C(=O)N[C@@H](c1ccc(C(F)(F)F)cc1)c1ncccc1C(F)(F)F` [Example 48, (S)-3-methoxy-N-((4-(trifluoromethyl)phenyl)(3-(trifluoromethyl)pyridin-2-yl)methyl)isonicotinamide] in this work.
An IC50 of 13.2 nM was found for `Cn1cc(C(=O)N[C@@H](c2ccc(C(F)(F)F)cc2)c2ncccc2Cl)ccc1=O` [Example 249, (S)-N-((3-chloropyridin-2-yl)(4-(trifluoromethyl)phenyl)methyl)-1-methyl-6-oxo-1,6-dihydropyridine-3-carboxamide 2,2,2-trifluoroacetate] in this work.
An IC50 of 117 nM was found for `O=C(N[C@@H](c1ccc2ccccc2c1)c1ncccc1C(F)(F)F)c1ccc2cccnc2c1` [Example 15, (S)-N-(naphthalen-2-yl(3-(trifluoromethyl)pyridin-2-yl)methyl)quinoline-7-carboxamide] in this work.
An IC50 of 21.5 nM was found for `N#Cc1ccc(C(=O)N[C@@H](c2ccc(C(F)(F)F)cc2)c2ncccc2F)cc1` [Example 167, (S)-4-cyano-N-((3-fluoropyridin-2-yl)(4-(trifluoromethyl)phenyl)methyl)benzamide] in this work.
An IC50 of 13.4 nM was found for `Cc1ccc(C(=O)N[C@@H](c2ccc(C(F)(F)F)cc2)c2ncccc2C(F)(F)F)cn1` [Example 40, (S)-6-methyl-N-((4-(trifluoromethyl)phenyl)(3-(trifluoromethyl)pyridin-2-yl)methyl)nicotinamide] in this work.
An IC50 of 9.2 nM was found for `O=C1Cc2cc(C(=O)N[C@@H](c3ccc(C(F)(F)F)cc3)c3ncccc3C(F)(F)F)ccc2N1` [Example 56, (S)-2-oxo-N-((4-(trifluoromethyl)phenyl)(3-(trifluoromethyl)pyridin-2-yl)methyl)indoline-5-carboxamide] in this work.
An IC50 of 3320 nM was found for `Cc1nccn1CC(=O)N[C@@H](c1ccc(C(F)(F)F)cc1)c1ncccc1C(F)(F)F` [Example 160, (S)-2-(2-methyl-1H-imidazol-1-yl)-N-((4-(trifluoromethyl)phenyl)(3-(trifluoromethyl)pyridin-2-yl)methyl)acetamide] in this work.
An IC50 of 6.9 nM was found for `O=C(N[C@@H](c1ccc(OC(F)(F)F)c(F)c1)c1ncccc1Br)c1ccc(=O)[nH]c1` [Example 382, (S)-N-((3-bromopyridin-2-yl)(3-fluoro-4-(trifluoromethoxy)phenyl)methyl)-6-oxo-1,6-dihydropyridine-3-carboxamide] in this work.
An IC50 of 119 nM was found for `CC#Cc1cccnc1[C@@H](NC(=O)c1ccc2cccnc2c1)c1ccc(C(F)(F)F)cc1` [Example 97, (S)-N-((3-(prop-1-yn-1-yl)pyridin-2-yl)(4-(trifluoromethyl)phenyl)methyl)quinoline-7-carboxamide 2,2,2-trifluoroacetate] in this work.
An IC50 of 81.5 nM was found for `O=C(N[C@@H](c1ccc(C(F)(F)F)cc1)c1ncccc1C(F)(F)F)c1ccnnc1` [Example 212, (S)-N-((4-(trifluoromethyl)phenyl)(3-(trifluoromethyl)pyridin-2-yl)methyl)pyridazine-4-carboxamide] in this work.
An IC50 of 70.9 nM was found for `CC(C)(O)Cn1cc(C(=O)N[C@@H](c2ccc(OC(F)(F)F)c(F)c2)c2ncccc2F)ccc1=O` [Example 302, (S)-N-((3-fluoro-4-(trifluoromethoxy)phenyl)(3-fluoropyridin-2-yl)methyl)-1-(2-hydroxy-2-methylpropyl)-6-oxo-1,6-dihydropyridine-3-carboxamide] in this work.
An IC50 of 38.4 nM was found for `N#Cc1cccc(C(=O)N[C@@H](c2ccc(C(F)(F)F)cc2)c2ncccc2C(F)(F)F)c1` [Example 168, (S)-3-cyano-N-((4-(trifluoromethyl)phenyl)(3-(trifluoromethyl)pyridin-2-yl)methyl)be] in this work.
An IC50 of 104 nM was found for `O=C(N[C@@H](c1ccc(C(F)(F)F)cc1)c1ncccc1F)c1ccc2cccnc2c1` (stereo in doubt) [Example 204, N-((3-fluoropyridin-2-yl)(4-(trifluoromethyl)phenyl)methyl)quinoline-7-carboxamide] in this work.
An IC50 of 156 nM was found for `C=CCN1C(=O)c2ccc(C(=O)N[C@@H](c3ccc(C(F)(F)F)cc3)c3ncccc3C(F)(F)F)cc2C1=O` [Example 268, (S)-2-Allyl-1,3-dioxo-N-((4-(trifluoromethyl)phenyl)(3-(trifluoromethyl)pyridin-2-yl)methyl)isoindoline-5-carboxamide] in this work.

From patent US8710043B2, “TRPM8 antagonists and their use in treatments” (Amgen Inc., priority 2011, dated 2014)
